Experimental data reported in US20090023637A1, “Methods for detecting and treating interstitial cystitis” (priority 2006, published 2009).

How the values were obtained:
[1] = system: human bladder cells (HTB4); assay: Cytotoxicity assay, unmodified versus desialylated THP, Example 2
Protocol: The TF obtained from 2 different pooled urine samples (TF1, TF2) was tested for cytotoxicity using the CellTiter96 Aqueous One Solution Proliferation Assay™ (Promega Corp, Madison, Wis.). Rat urothelial target cells and human HTB4 urothelial cells were plated in 96-well tissue culture plates (Nunclon™) in triplicate (50,000 cells/well). Cells had been maintained in Ham's-M199 tissue culture media supplemented with 10% fetal calf serum (FCS)+antibiotics (Pen-Strep).
For cytotoxicity assay, cells were harvested from seed flasks, washed free of trypsin-EDTA, and resuspended in DME media (without phenol red indicator) −1% FCS (assay media). An aliquot of the cell suspension was counted in a hemocytometer and diluted with assay media to a concentration of 0.5×10^6 cells/ml, from which 100 μl (5×10^4 cells) were added to each well in a 96-well microtiter plate. […] Dose response data was determined beforehand for the TF preparations. […]
After overnight incubation at 37° C., the target cells were washed twice with DME alone (200 μl/well) and fresh DME added to each well (90 μl). Then a tetrazolium compound (MTS-Owen's Reagent) combined with an electron coupling reagent (PES) was added (10 μl/well) per kit protocol and absorbance measured in a plate reader after 30 min incubation at 490 nm and at 630 nm after blanking the plate to DME media containing the tetrazolium compound. […]

[2] = THP zeta potential (mV) measurements; format: physicochemical; settings: 0.01M NaCl buffer, pH 7.0 at 25° C.; n=6 in each group
Protocol: Surface charge properties (zeta potential) are measured for THP samples from patients (n=6) and controls (n=6). THP (Biomedical Technologies, Inc.) and fetuin and asialofetuin (Sigma Chemical Co.) standards (50 μg) are similarly measured. Zeta potential and size measurements are made with a Zetasizer Nano ZS instrument and a CGS-3 Goniometer system (Malvern Instruments Inc., Southborough, Mass.) with ancillary software version 4.0. All zeta potential measurements are conducted on rehydrated samples in 0.01M NaCl buffer, pH 7.0 at 25° C., after centrifugation followed by filtration ([…]) to remove any aggregates. Measurements are made in triplicate and the results analyzed by Student's t test for significance.

[3] = system: rat bladder; assay: Evaluation of bladder overactivity in rodents (urodynamics, KCl infusion after test substance), Example 1; format: in vivo, Sprague-Dawley rats; settings: intravesical infusion; TF 15 mg/mL or THP 10 mg/ml + TF 15 mg/ml 1:1, followed by 400 mM KCl for 30 minutes
Source text: After a few days of acclimatization, two groups (n=9 each) of adult male Sprague-Dawley rats (325-350 g) underwent urodynamics evaluation of bladder hyperactivity before and after intravesical infusion of a test substance (TF or TF plus THP) followed by intravesical KCl.^8 The procedure was as follows.
The rats were anesthetized with a subcutaneous injection of urethane (1.2 g/Kg) and a 1 cm incision was made along the centerline of the lower ventral abdomen. Once the bladder was exteriorized, a 22 gauge (0.7 mm) catheter (Intracath, Becton-Dickinson, OH) was inserted into the bladder dome and sutured in place using a purse string suture with 4.0 tapered prolene suture. The bladder was returned to the abdomen, with the line escaping through the incision. […] During the continuous filling bladder cystometry, the pressure was recorded with the transducer using the program LabView (National Instruments, TX).
To induce hyperactivity, the bladder was first infused with warm (37° C.) 0.9% saline or 400 mM KCl (29.8 mg/mL, Abbott Laboratories, IL) at 40 μL/min (2.4 mL/hr) and at least 20 minutes of stable voiding cycles were recorded during infusion. The pressure threshold (PT, pressure at which voiding initializes) and peak pressure (PP, pressure maximum or amplitude of bladder contractions) were recorded. […]

[4] = system: rat bladder; assay: Evaluation of bladder overactivity in rodents (urodynamics), Example 2; format: in vivo, Sprague-Dawley rats; settings: intravesical infusion; TF 15 mg/mL alone or mixed 1:1 with unmodified THP or THP-d 10 mg/ml, followed by 400 mM KCl for 30 min
Protocol: After a few days of acclimatization, adult male SD rats underwent urodynamics evaluation of bladder hyperactivity before and after intravesical infusion of a test substance^8 (TF or TF plus unmodified THP or TF plus THP-d) followed by intravesical KCl. The procedure for the in vivo rat study was performed as described previously.^23
After baseline measurements of pressure threshold, peak pressure, frequency of contractions, inter-contractile interval, and percentage of nonvoiding contractions (NVC) were recorded as previously described,^23 rats were infused with the test solution. One group of animals received an infusion of TF (15 mg/mL). To test the effect of desialylation on the ability of THP to attenuate the bladder hyperactivity induced by TF and KCl, second and third groups of animals received an infusion of a mixture of unmodified THP or THP-d 10 mg/ml and TF (15 mg/ml) mixed in a ratio of 1:1.
Infusion of the test solution was followed by infusion of 400 mM KCl for 30 min^8 and urodynamics measurements were repeated.

[5] = system: rat bladder; assay: Evaluation of bladder overactivity in rodents (urodynamics), Example 4; format: in vivo, Sprague-Dawley rats; settings: intravesical infusion; PS 30 mg/mL, toxic factor 15 mg/mL, or PPS 10 mg/ml + toxic factor 15 mg/ml, followed by 400 mM KCl for 30 minutes
Source text: After a few days of acclimatization, three groups (n=9 each) of adult male Sprague-Dawley rats (325-350 g) underwent urodynamics evaluation of bladder hyperactivity before and after intravesical infusion of a test substance (PS, urinary toxic factor, or toxic factor plus PPS) followed by intravesical KCl.^4
The procedure was as follows: The rats were anesthetized with a subcutaneous injection of urethane (1.2 g/Kg) and a 1 cm incision made along the centerline of the lower ventral abdomen. […] During the continuous filling bladder cystometry, the pressure was recorded with the transducer using the program LabView (National Instruments, TX).
To induce hyperactivity, the bladder was first infused with warm 0.9% saline (37° C.) at 40 μL/min (2.4 mL/hr) and at least 20 minutes of stable voiding cycles recorded during infusion. The pressure threshold (PT, pressure at which voiding initializes) and peak pressure (PP, pressure maximum or amplitude of bladder contractions) were recorded. Frequency of contractions and inter-contractile interval (ICI) were recorded, along with the percentage of non-voiding contractions (% NVC, contractions where the PP is greater than 2 cm H2O and less than the TP, thus not resulting in a void). […]

## THP-d: THP desialylated by mild acid hydrolysis in 2.5M acetic acid, 3 hr at 82° C.
[1]; HTB4 cells 5 × 10^4/well, THP or THP-d mixed with TF 60 min, overnight incubation, relative to media controls
  Average cytotoxicity (%): 13.4%

## control THP: THP isolated from urine of healthy control subjects
[2]
  zeta potential: −28.0±2.4 mV

## [Cl-].[K+] [KCl]
[3]
  NVC/minute (nonvoiding contractions): 0.25 ± 0.064 NVC/minute
[4]
  NVC/minute (nonvoiding contractions): 0.25 ± 0.064 NVC/minute
[5]
  NVC/minute (nonvoiding contractions): 0.25 ± 0.064 NVC/minute

## protamine sulfate
[5]
  NVC/minute (nonvoiding contractions): 1.733 ± 0.55 NVC/minute
[1]; footnote to Table 3, known cytotoxic agent
  Cytotoxicity LD50: †Cytotoxicity of protamine sulfate, a known cytotoxic agent: LD50 = ~20 μg
